For one assay, the system named is human cell lines. The assay is described as follows: Human cell line viability with BCL2 inhibitors (CellTiter-Glo, GI50). Conditions: 96 h. Format: cell-based. The procedure: Human cell lines were seeded in triplicate in white, flat-bottomed 96-well plates at 2000 cells/well. […] Drug was added again at 48 h to maintain the desired final concentration. After 96 h of treatment, cell viability was measured using Cell Titer Glo (CTG) assay (Promega, Madison, Wis., USA) and plates were read on a luminometer. Normalized, transformed dose response curves were generated and analyzed using GraphPad Prism (GraphPad, La Jolla, Calif., USA) to determine GI50 for each compound (see, FIG. 13). Error bars represent mean+/−SEM.
(In general: Cellular ATP, detected with luciferase, serves as a proxy for viable cell number.)

Another assay deals with human SCLC cell lines. The assay is described as follows: Drug screening of human SCLC cell lines (CellTiter-Glo viability, GI50). Format: cell-based. Conditions: 17 human SCLC cell lines, 72-96 hr; adjusted p: etoposide 0.038, alisertib 0.001, barasertib 0.022.
The subject of assay [1] is RPM mouse SCLC cell lines. The assay is described as follows: Mouse cell viability and proliferation assays (CellTiter-Glo, GI50). To be noted: 96 hrs; for GI50: RPM cell lines (n=7). Format: cell-based. The procedure: Mouse cell viability and proliferation assays. Cells were seeded in triplicate (1500/well) in white, flat-bottom 96-well plates. […] After 96 hrs of treatment, cell viability was measured using Cell Titer Glo (CTG, Promega, Madison, Wis., USA) on a luminometer. Normalized, transformed dose response curves were generated and analyzed using GraphPad Prism (GraphPad, La Jolla, Calif., USA) to determine GI50 for each compound. […] Confluence percentage at each time point was calculated by the Essen IncuCyte software.

Another assay concerns AURKA. The assay is described as follows: Immunoblot of Aurora kinase inhibition in treated cells. It is filed as cell-based. To be noted: concentrations in the range of the GI50-value, mouse and human cells. For orientation: Immunoblotting shows a protein as a band on a membrane.
A further assay has as its target T1, AURKB (Homo sapiens, UniProt Q96GD4).
T1 construct: Whole cell lysates analyzed by immunoblot for indicated antibodies; endogenous in cells; host or cells: GLC2 (human SCLC)
The assay is described as above. Format: cell-based. Conditions: concentrations in the range of the GI50-value, mouse and human cells. How it is done:
Immunoblot. For primary lung tumor lysates, mouse lung tumors were micro-dissected under sterile conditions, flash frozen and stored at −80° C. until use. Approximately 20-40 mg tumor pieces were disrupted and lysed to homogeneity with disposable pestles and cordless motor (VWR) in 200 μl RIPA buffer supplemented with protease inhibitors (Roche complete mini) and sodium orthovanadate (Sigma). Lysates are centrifuged at 13000 rpm for 15 minutes and supernatants are transferred to new tubes. For cell line lysates, total protein lysates are prepared as previously described, separated via SDS-PAGE and transferred to a PVDF membrane (Oliver et al., 2011). Membranes were blocked for 1 hr in 5% milk or 5% BSA, followed by overnight incubation with primary antibodies at 4° C. Membranes were washed for 6×5 min at room temperature in TBS-T. Mouse and rabbit HRP-conjugated secondary antibodies (Jackson ImmunoResearch, 1:10,000) were incubated for 1 hr at room temperature followed by washing 6×5 min at room temperature in TBS-T. For detection, membranes were exposed to WesternBright HRP Quantum substrate (Advansta) and detected on Hyblot CL film (Denville Scientific Inc). […]

The next assay relates to RPM cells. The assay is described as follows: Cell cycle analysis (PI staining, flow cytometry). It is filed as cell-based, mouse. To be noted: 48 hr. The procedure:
Cell cycle analysis. Cells were treated with indicated concentrations of alisertib (MLN8237, Selleckchem, Houston, Tex.) in 6-well plates and harvested with trypsin, washed twice in PBS, and 1×10^6 cells were fixed in ice-cold 70% ethanol overnight. Cells were washed 2× in PBS/1% BSA, treated with 100 μg/mL RNase for 10 min at 37° C., then stained with 25 μg/mL propidium iodide (PI) overnight at 4 C. Cells were analyzed on a BD FACScan flow cytometer and cell cycle analysis excluding cell doublets was performed using FlowJo software.
For orientation: Flow cytometry measures light scatter and fluorescence of single cells or particles in a stream.

The test system of the next assay is MYC. Nature of the assay: MYC protein level and stability (immunoblot, cycloheximide). Conditions: mouse or human cells, also after cycloheximide block of protein synthesis. Format: cell-based. The procedure: Alternatively, cell lysates were prepared using RIPA buffer supplemented with protease inhibitors (Roche complete mini) and benzonase (Millipore)), separated on 4-20% Tris-glycine SDS-PAGE gels (Invitrogen), and transferred to PVDF-FL membrane (Millipore). Membranes were blocked using Li-Cor blocking buffer (1:10 in TBS) and incubated with primary antibodies in blocking solution with 0.2% Tween 20 overnight at 4° C. Prior to detection with a near-IR imaging system (Li-Cor Odyssey), membranes were washed in TBS-T, incubated with secondary antibodies and washed in TBS-T. For total Aurora A in FIG. 6H, the chemiluminescent signal (ECL, GE Healthcare) was captured with a CCD-camera (BioRad Geldoc XR+). […]
Protein stability cycloheximide (CHX) experiments. […] Protein lysates were prepared using RIPA buffer as described above, separated on 4-20% Tris-glycine gels (Invitrogen), and analyzed by immunoblot against Myc and Hsp90. Signals were quantified using Li-Cor Image Studio (Li-Cor Biosciences) and ratios of Myc/Hsp90 normalized to the 0 min time point. […]

The subject of assay [2] is RPM mice with Myc-driven SCLC. Nature of the assay: In vivo drug study in RPM mice (microCT tumor volume, survival). More on the design: species or system mouse.
Protocol: Alisertib (MLN8237, ApexBio, dissolved in 10% 2-hydroxy-beta-cyclo-dextrin and 1% sodium bicarbonate) was given 20 mg/kg twice daily by oral gavage on a schedule of 5 days on, 2 days off. […] For survival studies, endpoints include but are not limited to: difficulty breathing, eating or moving, obvious signs of pain or weight loss greater than 20% of initial body weight.
Mice were scanned for 34 sec under isoflurane anesthesia using a small animal Quantum FX microCT (PerkinElmer) at 45 μm resolution, 90 kV with 160 μA current. Images were acquired using PerkinElmer Quantum FX software and processed with Analyze 11.0 (AnalyzeDirect).
Scans were calibrated for Hounsfield Units (HU) by determining the mean value of “Bed” and “Air” for representative scans through the region of interest (ROI) tool and matching those values to their known HU (40 HU and −1000 HU, respectively) using the “Image Algebra” tool. Every image was then applied a 3×3×3 Median Filter from the “Spatial Filters” window. Thresholds of “Air” vs. “Dense Tissue” were established using the ROI and histogram tools. Every image was processed and normalized using the “Image Algebra” tool, followed by a 3×3×3 Median Filter from the “Spatial Filters” window. For Total Tumor Burden Analyses, the object map was created using the previously established thresholds; adjustments were made manually using “Spline Edit”, “Draw” and “Nudge Edit” tools. The object map was then morphed using the “Morphology” tool. The object map was made binary by using the threshold morphing tool. Then, the map was dilated 3 times using 5×5×5 Jack-shaped structuring elements. The holes were then filled on every 2D-orientation. The map was finally brought back to its original size using the “Erode” tool 3 times using 5×5×5 Jack-shaped structuring elements. The volumetric analyses were then performed in the ROI window using the pre-established thresholds and non-airspace was calculated using the formula: Non-airspace=1−(VolAir/ROIVol). For individual tumors, the 3D segmentation was performed semiautomatically using Analyze 11.0 “object extract tool”. Adjustments were made manually using the “Spline Edit”, “Draw” and “Nudge Edit” tools. The tumor segmentation was then processed using the semi-automatic tools “fill holes” and the object was propagated and smoothed in the axial, transverse and coronal planes. Volume quantification was obtained using the ROI tool as for total tumor burden analyses.
Total tumor volume was quantified relative to total air volume as a comprehensive measurement of treatment impact. […] The percent change in total tumor volume was analyzed at Day 19 (or at the time of death, if sooner) compared to Day 0 in each treatment group by waterfall plot.
A further assay has as its system RPM tumors. The assay is described as follows: IHC and histology of tumors of treated RPM mice. It is filed as in vivo, mouse.
Assay [3] deals with human SCLC cell lines infected with Bcl-2 vector. Nature of the assay: Viability of human SCLC cell lines overexpressing BCL2. To be noted: human SCLC cell lines with pMSCV PIG Bcl-2 vs empty vector. It is filed as cell-based.
Protocol: HEK293T cells were transfected with pMSCV PIG (Addgene Plasmid #21654) empty vector, or pMSCV PIG with an insert that encodes the human Bcl-2 gene in addition to pCMV-VSVG and pCMV delta R8.2 plasmids using TransIT-LT1 (Minis). Virus was collected at 48 and 72 hr post-transfection. Human SCLC cell lines were infected with viral supernatant. Infected cells were selected with puromycin for several days until all uninfected cells were killed by puromycin. […] Cell viability assays were carried out as previously described, with the addition of Alisertib+/−0.5 uM ABT-199 (ApexBio) using the infected human cell lines described above. Cell viability assays were carried out as previously described, with the addition of Alisertib+/−0.5 uM ABT-199 (ApexBio) using the infected human cell lines described above.
The test system of assay [4] is MYC-high vs. MYC-low human SCLC cell lines. To be noted: 68 human SCLC cell lines binned by MYC expression, data of Polley et al., 2016; cited from earlier work.
Another assay deals with relapsed SCLC. Conditions: monotherapy, relapsed SCLC (Melichar et al., 2015); cited from earlier work.

T1 sequence (Q96GD4 whole entry): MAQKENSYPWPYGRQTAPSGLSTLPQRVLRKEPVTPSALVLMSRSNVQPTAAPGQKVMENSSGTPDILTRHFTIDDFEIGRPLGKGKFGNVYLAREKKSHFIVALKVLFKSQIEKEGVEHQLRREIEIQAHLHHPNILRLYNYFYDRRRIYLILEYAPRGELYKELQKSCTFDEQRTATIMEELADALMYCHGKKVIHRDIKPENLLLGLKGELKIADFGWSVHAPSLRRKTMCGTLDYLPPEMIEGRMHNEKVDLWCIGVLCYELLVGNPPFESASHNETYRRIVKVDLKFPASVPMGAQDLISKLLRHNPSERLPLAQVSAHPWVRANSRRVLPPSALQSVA
Protocol for RPM tumors: Sections were dewaxed, rehydrated and subjected to high temperature antigen retrieval, 20 min boiling in a pressure cooker in 0.01 M citrate buffer, pH 6.0. Slides were blocked in 3% H202 for 15 min, blocked in 5% goat serum in PBS/0.1% Tween-20 (PBS-T) for 1 hr, and stained overnight in blocking buffer with primary antibodies. A HRP conjugated secondary antibody (Vector Laboratories) was used at 1:200 dilution in PBS-T, incubated for 45 min at room temperature, followed by DAB staining (Vector Laboratories). All staining was performed with Sequenza coverplate technology. Mouse on Mouse (M.O.M.) Basic Kit (Vector Laboratories) was used for staining with BrdU and Ki67 mouse primary antibodies. Tris buffered saline with Tween-20 (TBS-T) was used instead of PBS-T for phospho-protein antibodies. […]
For automated image analysis, IHC-stained slides were digitally scanned with the Aperio AT2 Scanscope and whole slides images were quantitatively analyzed with image analysis nuclear algorithm using Halo digital imaging analysis software (Indica Labs, NM, USA). […] Results are expressed as percent positive cells per tumor area.

In the case of `CC1(C)CCC(CN2CCN(c3ccc(C(=O)NS(=O)(=O)c4ccc(NCC5CCOCC5)c([N+](=O)[O-])c4)c(Oc4cnc5[nH]ccc5c4)c3)CC2)=C(c2ccc(Cl)cc2)C1` [ABT-199], the “sensitivity (GI50) to BCL2 inhibition relative to MYC expression” value in the assay with human cell lines is “MYC expression anti-correlates with BCL2 expression and sensitivity to BCL2 inhibition”.

Take `CN(C)CC[C@H](CSc1ccccc1)Nc1ccc(S(=O)(=O)NC(=O)c2ccc(N3CCN(Cc4ccccc4-c4ccc(Cl)cc4)CC3)cc2)cc1[N+](=O)[O-]` [ABT-737]: in the assay with human cell lines, the “sensitivity (GI50) to BCL2 inhibition relative to MYC expression” value was “MYC expression anti-correlates with BCL2 expression and sensitivity to BCL2 inhibition”.

`COc1cc(Nc2ncc3c(n2)-c2ccc(Cl)cc2C(c2c(F)cccc2OC)=NC3)ccc1C(=O)O` [alisertib]: the “drug response (GI50) of MYC-driven SCLCs versus those driven by MYCL or MYCN” value with human SCLC cell lines was “significantly more responsive”. In addition, the “sensitivity of RPM cells compared to adenocarcinoma cell lines and non-MYC-driven cells (GI50)” value in assay [1] (RPM vs RPP, RP, KP cell lines) is “particularly sensitive”. Also, the “inhibition of AURKA” value in the assay with AURKA is “dose-dependent inhibition”. Besides, at AURKB, the “inhibition of AURKB” value is “dose-dependent inhibition”. Besides, in the assay on RPM cells (RPM cells compared to KP, RPP and RP cells), the subG1 cells entry is “greater increase in subG1 cells”. The G2/M phase cells result in the assay with RPM cells (RPM cells) is recorded as “dose-dependent increase in G2/M phase cells”. The MYC protein level entry in the assay on MYC is on record as “did not primarily lead to reduced MYC protein”. In addition, the “increase of median survival compared to untreated animals” value in assay [2] (Day 0 = start of treatment) stood at 10 days. For the same compound, the “mice that survived 30 days” value in [2] (PBS 0%) stood at 8%. The “tumor growth (total tumor volume by microCT)” value in assay [2] (three cycles, alisertib 20 mg/kg twice daily 5 days on 2 off, cisplatin 5 mg/kg + etoposide 10 mg/kg once weekly) is “modest delay in tumor growth”. Further, in [2] (waterfall plot), the “overall response (percent change in total tumor volume Day 0-19) compared to untreated animals” value is recorded as “did not impact overall response”. Further, the “cells with polyploidy and aberrant mitoses” value with RPM tumors (alisertib 20 mg/kg twice daily) is listed as “dramatic enrichment”. In the assay with RPM tumors (compared to other treatment groups), the “NEUROD1+ cells by IHC” value is listed as “significantly enriched”. Moreover, the “Alisertib sensitivity on BCL2 overexpression” value in [3] is “BCL2 overexpression promotes Alisertib resistance”. Further, in assay [4], the “efficacy (IC50) in MYC-high versus MYC-low cell lines” value is “increased efficacy in MYC-high cell lines”. Further, in the assay on relapsed SCLC, the “patients exhibiting partial responses” value is recorded as roughly 20%.

On to `N.N.[Cl][Pt][Cl]` [cisplatin], for which, in [1], the GI50 result is listed as “high micromolar”.

For the compound `COc1cc([C@@H]2c3cc4c(cc3[C@@H](O[C@@H]3O[C@@H]5CO[C@@H](C)O[C@H]5[C@H](O)[C@H]3O)[C@H]3COC(=O)[C@H]23)OCO4)cc(OC)c1O` [etoposide], in assay [1], the GI50 result was “nanomolar”.

The record behind these values is US12188095B2, “Methods and compositions for identifying and treating patients with small cell lung cancer” (UNIVERSITY OF UTAH RESEARCH FOUNDATION, priority 2016, dated 2025).
